Reference: ChEMBL document CHEMBL1132264, “Low-molecular-weight anti-HIV-1 peptides from the amino-terminal sequence of RANTES: possible lead compounds for coreceptor-directed anti-HIV-1 agents” (1999)
Where a SMILES comes first, the peptide text is derived from it.

What was measured:
[1] = test system: Human immunodeficiency virus 1; experiment: Anti-HIV-1 activity of phytohemagglutininin activated peripheral blood mononuclear cells infected with the macrophage-tropic HIV-1 virus (JRCSF) at 100 nM; type: functional
[2] = test system: Human immunodeficiency virus 1; experiment: Anti-HIV-1 activity of phytohemagglutininin activated peripheral blood mononuclear cells infected with the macrophage-tropic HIV-1 virus (JRCSF) at 10 nM; type: functional

Row | Structure (SMILES) | inhibition at 0.1 µM [1] [%] | inhibition at 0.01 µM [2] [%]
1 | C[C@H](NC(=O)[C@@H]1CCCN1C(=O)[C@@H](NC(=O)[C@@H](N)[C@@H](C)O)[C@@H](C)O)C(=O)O (H-TTPA-OH) | 0 | 0
2 | C[C@H](NC(=O)[C@@H]1CCCN1C(=O)[C@@H](NC(=O)[C@@H](NC(=O)[C@H](CC(=O)O)NC(=O)[C@H](CO)NC(=O)[C@H](CO)NC(=O)[C@@H](N)Cc1ccc(O)cc1)[C@@H](C)O)[C@@H](C)O)C(=O)O (H-YSSDTTPA-OH) | 34 | 41
3 | CC(=O)N[C@@H](CC(=O)O)C(=O)N[C@H](C(=O)N[C@H](C(=O)N1CCC[C@H]1C(=O)N[C@@H](C)C(N)=O)[C@@H](C)O)[C@@H](C)O (Ac-DTTPA-NH2) | 46 | 43
4 | C[C@H](NC(=O)[C@@H]1CCCN1C(=O)[C@@H](NC(=O)[C@@H](NC(=O)[C@H](CC(=O)O)NC(=O)[C@H](CO)NC(=O)[C@H](CO)NC(=O)[C@H](Cc1ccc(O)cc1)NC(=O)[C@@H]1CCCN1)[C@@H](C)O)[C@@H](C)O)C(=O)O [PYSSDTTPA] (H-PYSSDTTPA-OH) | 39 | 24
5 | C[C@H](NC(=O)[C@@H]1CCCN1C(=O)[C@@H](NC(=O)[C@@H](NC(=O)[C@@H](N)CC(=O)O)[C@@H](C)O)[C@@H](C)O)C(=O)O (H-DTTPA-OH) | 29 | 18
6 | C[C@H](NC(=O)[C@@H]1CCCN1C(=O)[C@@H](NC(=O)[C@@H](NC(=O)[C@H](CC(=O)O)NC(=O)[C@H](CO)NC(=O)[C@@H](N)CO)[C@@H](C)O)[C@@H](C)O)C(=O)O (H-SSDTTPA-OH) | 22 | 22
7 | CC(=O)N[C@@H](CO)C(=O)N1CCC[C@H]1C(=O)N[C@@H](Cc1ccc(O)cc1)C(=O)N[C@@H](CO)C(=O)N[C@@H](CO)C(=O)N[C@@H](CC(=O)O)C(=O)N[C@H](C(=O)N[C@H](C(=O)N1CCC[C@H]1C(=O)N[C@@H](C)C(N)=O)[C@@H](C)O)[C@@H](C)O (Ac-SPYSSDTTPA-NH2) | 69 | 51
8 | C[C@H](NC(=O)[C@@H]1CCCN1C(=O)[C@@H](NC(=O)[C@@H](NC(=O)[C@H](CC(=O)O)NC(=O)[C@@H](N)CO)[C@@H](C)O)[C@@H](C)O)C(=O)O (H-SDTTPA-OH) | 4 | 9
